Literature values as cited in patent publication US20100113478A1, “INDOLONE MODULATORS OF 5-HT3 RECEPTOR” (AUSPEX PHARMACEUTICALS, INC., priority 2008, published 2010).

Conditions: women compared with men

alosetron clearance lower in women than in men: 30%
SMILES: Cc1[nH]cnc1CN1CCc2c(c3ccccc3n2C)C1=O [alosetron, 5-methyl-2-((5-methyl-1H-imidazol-4-yl)methyl)-2,3,4,5-tetrahydro-1H-pyrido[4,3-b]indol-1-one]
